From patent publication US9012460B2, “1-(2-phenoxymethylphenyl)piperazine compounds” (Theravance Biopharma R&D IP, LLC, priority 2010, dated 2015)

Tests used:
hNET [1] = target: T1, hNET (Homo sapiens, UniProt P23975); experiment: hNET membrane radioligand binding assay (Assay 1); details: 3H-nisoxetine, membranes from HEK-293 cells expressing hNET; read-out: NET pKi (converted)
T1 construct: expressed in transfected cells; host or cells: HEK-293
Protocol: (§1) Membrane radioligand binding assays were used to measure inhibition of labeled ligand (^3H-citalopram or ^3H-nisoxetine or ^3H-WIN35428) binding to membranes prepared from cells expressing the respective human recombinant transporter (hSERT or hNET or hDAT) in order to determine the pKi values of test compounds at the transporters.
(§2) Recombinant human embryonic kidney (HEK-293) derived cell lines stably transfected with hSERT or hNET, respectively, were grown in DMEM medium supplemented with 10% dialyzed FBS (for hSERT) or FBS (for hNET), 100 μg/ml penicillin, 100 μg/ml streptomycin, 2 mM L-glutamine and 250 μg/ml of the aminoglycoside antibiotic G418, in a 5% CO2 humidified incubator at 37° C. When cultures reached 80% confluence, the cells were washed thoroughly in PBS (without Ca^2+ and Mg^2+) and lifted with 5 mM EDTA in PBS. Cells were pelleted by centrifugation, resuspended in lysis buffer (10 mM Tris-HCl, pH7.5 containing 1 mM EDTA), homogenized, pelleted by centrifugation, then resuspended in 50 mM Tris-HCl, pH 7.5 and 10% sucrose at 4° C. Protein concentration of the membrane suspension was determined using a Bio-Rad Bradford Protein Assay kit. Membranes were snap frozen and stored at −80° C. Chinese hamster ovary membranes expressing hDAT (CHO-DAT) were purchased from PerkinElmer and stored at −80° C.
(§3) Binding assays were performed in a 96-well assay plate in a total volume of 200 μL assay buffer (50 mM Tris-HCl, 120 mM NaCl, 5 mM KCl, pH 7.4) with 0.5, 1, and 3 μg membrane protein, for SERT, NET and DAT, respectively.
(§4) Stock solutions (10 mM in DMSO) of test compound were prepared and serial dilutions made using Dilution Buffer (50 mM Tris-HCl, 120 mM NaCl, 5 mM KCl, pH 7.4, 0.1% BSA, 400 μM ascorbic acid).
(§5) Following a 60 minute incubation at 22° C. (or a period sufficient to reach equilibrium), the membranes were harvested by rapid filtration over a 96-well UniFilter GF/B plate, pretreated with 0.3% polyethyleneimine, and washed 6 times with 300 μl wash buffer (50 mM Tris-HCl, 0.9% NaCl, pH 7.5 at 4° C.). Plates were dried overnight at room temperature, ˜45 μl of MicroScint™-20 (Perkin Elmer) added and bound radioactivity quantitated via liquid scintillation spectroscopy. Inhibition curves and saturation isotherms were analyzed using GraphPad Prism Software package (GraphPad Software, Inc., San Diego, Calif.). IC50 values were generated from concentration response curves using the Sigmoidal Dose Response (variable slope) algorithm in Prism GraphPad. Kd and Bmax values for the radioligand were generated from saturation isotherms using the Saturation Binding Global Fit algorithm in Prism GraphPad. pKi (negative decadic logarithm of Ki) values for test compounds were calculated from the best-fit IC50 values, and the Kd value of the radioligand, using the Cheng-Prusoff equation (Cheng & Prusoff (1973) Biochem. Pharmacol. 22(23):3099-3108): Ki=IC50/(1+[L]/Kd), where [L]=concentration radioligand.

hSERT [2] = target: T2, hSERT (Homo sapiens, UniProt P31645); experiment: hSERT membrane radioligand binding assay (Assay 1); details: 3H-citalopram, membranes from HEK-293 cells expressing hSERT; read-out: SERT pKi (converted)
T2 construct: expressed in transfected cells; host or cells: HEK-293
T2 sequence (P31645 whole entry): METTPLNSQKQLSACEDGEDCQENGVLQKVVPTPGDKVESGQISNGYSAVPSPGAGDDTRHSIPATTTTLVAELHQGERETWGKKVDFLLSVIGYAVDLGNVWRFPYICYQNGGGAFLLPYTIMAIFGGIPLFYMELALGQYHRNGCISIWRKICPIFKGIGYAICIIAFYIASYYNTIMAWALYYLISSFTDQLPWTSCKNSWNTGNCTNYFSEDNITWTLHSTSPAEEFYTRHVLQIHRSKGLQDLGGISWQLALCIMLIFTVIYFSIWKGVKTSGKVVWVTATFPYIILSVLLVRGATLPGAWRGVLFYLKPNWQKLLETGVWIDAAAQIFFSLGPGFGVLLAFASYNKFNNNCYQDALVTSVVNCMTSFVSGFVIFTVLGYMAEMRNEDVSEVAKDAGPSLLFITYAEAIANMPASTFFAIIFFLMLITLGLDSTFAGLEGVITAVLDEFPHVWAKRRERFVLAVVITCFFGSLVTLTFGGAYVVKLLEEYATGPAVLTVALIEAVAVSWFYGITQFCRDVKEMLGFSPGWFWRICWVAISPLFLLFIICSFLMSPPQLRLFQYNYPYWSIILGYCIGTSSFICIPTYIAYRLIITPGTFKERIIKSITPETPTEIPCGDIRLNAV
Protocol: as §1, §2, §3, §4, §5

hSERT [3] = target: T2, hSERT; experiment: hSERT neurotransmitter uptake assay (Assay 2) or fluorescence-based assay of Tsuruda et al.; type: cell-based; details: serotonin reuptake inhibition; asterisk = fluorescence-based assay (Tsuruda et al. 2010); read-out: SERT pIC50 (converted)
Protocol: (§6) Neurotransmitter uptake assays were used to measure inhibition of ^3H-serotonin (^3H-5-HT), ^3H-norepinephrine (^3H-NE), and ^3H-dopamine (^3H-DA) uptake into cells expressing the respective transporter (hSERT, hNET or hDAT) in order to determine the pIC50 values of test compounds at the transporters.
(§7) HEK-293 derived cell lines stably-transfected with hSERT, hNET, or hDAT, respectively, were grown in DMEM medium supplemented with 10% dialyzed FBS (for hSERT) or FBS (for hNET and hDAT), 100 μg/ml penicillin, 100 μg/ml streptomycin, 2 mM L-glutamine and 250 μg/ml of the aminoglycoside antibiotic G418 (for hSERT and hNET) or 800 ug/ml (for hDAT), in a 5% CO2 humidified incubator at 37° C. When cultures reached 80% confluence, the cells were washed thoroughly in PBS (without Ca^2+and Mg^2+) and lifted with 5 mM EDTA in PBS. […]
(§8) Following a 10 minute incubation, at 37° C., with radioligand, the cells were harvested by rapid filtration over a 96-well UniFilter GF/B plate, pretreated with 1% BSA, and washed 6 times with 650 μl wash buffer (ice cold PBS). Plates were dried overnight at 37° C., ˜45 μl of MicroScint™-20 (Perkin Elmer) added and incorporated radioactivity quantitated via liquid scintillation spectroscopy. Inhibition curves were analyzed using GraphPad Prism Software package (GraphPad Software, Inc., San Diego, Calif.). […]

hNET [4] = target: T1, hNET; experiment: hNET neurotransmitter uptake assay (Assay 2) or fluorescence-based assay of Tsuruda et al.; type: cell-based; details: norepinephrine reuptake inhibition; asterisk = fluorescence-based assay (Tsuruda et al. 2010); read-out: NET pIC50 (converted)
Protocol: as §6, §7, §8

T1 sequence (P23975 whole entry): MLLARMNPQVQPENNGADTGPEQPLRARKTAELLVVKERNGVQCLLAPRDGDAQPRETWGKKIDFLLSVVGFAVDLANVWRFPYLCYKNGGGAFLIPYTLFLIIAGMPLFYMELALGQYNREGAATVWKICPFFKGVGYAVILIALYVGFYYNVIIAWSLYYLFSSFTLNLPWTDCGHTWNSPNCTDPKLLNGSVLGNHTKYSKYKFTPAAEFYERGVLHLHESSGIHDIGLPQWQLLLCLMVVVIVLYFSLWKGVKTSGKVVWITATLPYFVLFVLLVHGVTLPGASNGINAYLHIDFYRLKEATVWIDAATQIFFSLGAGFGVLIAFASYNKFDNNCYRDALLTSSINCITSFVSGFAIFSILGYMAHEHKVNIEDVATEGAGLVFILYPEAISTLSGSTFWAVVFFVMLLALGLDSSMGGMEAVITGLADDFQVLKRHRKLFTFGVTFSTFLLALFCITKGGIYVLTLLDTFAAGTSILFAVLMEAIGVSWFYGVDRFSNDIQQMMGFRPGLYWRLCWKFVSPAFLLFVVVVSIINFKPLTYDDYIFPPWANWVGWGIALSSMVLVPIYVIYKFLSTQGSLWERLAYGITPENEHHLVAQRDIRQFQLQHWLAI

SMILES	Ki (hNET [1])	Ki (hSERT [2])	IC50 (hSERT [3])	IC50 (hNET [4])
Cc1c(F)cccc1OCc1ccccc1N1CCNCC1 [Example 2-20]	≤ 10000 nM	≤ 100 nM	–	–
Cc1ccc(F)cc1OCc1ccccc1N1CCNCC1 [Example 2-29]	≤ 10000 nM	≤ 100 nM	–	–
Fc1ccc(Cl)cc1OCc1ccccc1N1CCNCC1 [Example 2-24]	≤ 10000 nM	≤ 100 nM	–	–
N#Cc1ccc(Cl)cc1OCc1ccccc1N1CCNCC1 [Example 2-32]	≤ 10000 nM	≤ 100 nM	–	–
Fc1ccc(Br)c(OCc2ccccc2N2CCNCC2)c1 [Example 2-28]	≤ 10000 nM	≤ 100 nM	–	–
N#Cc1c(F)cccc1OCc1ccccc1N1CCNCC1 [Example 2-22]	≤ 10000 nM	≤ 100 nM	–	–
CCc1ccccc1OCc1ccccc1N1CCNCC1 [Example 2-6]	≤ 10000 nM	≤ 100 nM	–	–
Clc1cc(Cl)c(Cl)c(OCc2ccccc2N2CCNCC2)c1Cl [Example 2-40]	≤ 10000 nM	≤ 100 nM	–	–
c1ccc(Cc2ccccc2OCc2ccccc2N2CCNCC2)cc1 [Example 2-9]	≤ 10000 nM	≤ 100 nM	–	–
Clc1cc(Cl)cc(OCc2ccccc2N2CCNCC2)c1 [Example 2-37]	≤ 10000 nM	≤ 100 nM	–	–
Fc1ccc(Br)cc1OCc1ccccc1N1CCNCC1 [Example 2-25]	≤ 100 nM	≤ 100 nM	–	–
c1ccc(-c2ccccc2OCc2ccccc2N2CCNCC2)cc1 [Example 2-8]	≤ 10000 nM	≤ 100 nM	–	–
Clc1ccc(OCc2ccccc2N2CCNCC2)cc1Cl [Example 2-35]	≤ 100 nM	≤ 100 nM	–	–
Fc1ccccc1OCc1ccccc1N1CCNCC1 [Example 2-1]	≤ 100 nM	≤ 10000 nM	–	–
Brc1cccc(OCc2ccccc2N2CCNCC2)c1 [Example 2-13]	≤ 100 nM	≤ 100 nM	–	–
c1ccc(COc2ccccc2OCc2ccccc2N2CCNCC2)cc1 [Example 2-11]	≤ 10000 nM	≤ 10000 nM	–	–
COc1ccccc1OCc1ccccc1N1CCNCC1 [Example 2-7]	≤ 10000 nM	≤ 100 nM	–	–
c1ccc(Oc2ccccc2OCc2ccccc2N2CCNCC2)cc1 [Example 2-10]	≤ 100 nM	≤ 10000 nM	–	–
Fc1cc(OCc2ccccc2N2CCNCC2)ccc1Cl [Example 2-34]	≤ 100 nM	≤ 100 nM	–	–
Cc1ccccc1OCc1ccccc1N1CCNCC1 [Example 2-4]	≤ 10000 nM	≤ 100 nM	–	–
COc1ccc(Cl)cc1OCc1ccccc1N1CCNCC1 [Example 2-31]	≤ 10000 nM	≤ 100 nM	–	–

SMILES	Ki (hNET [1])	Ki (hSERT [2])	IC50 (hSERT [3])	IC50 (hNET [4])
Cc1ccc(Cl)cc1OCc1ccccc1N1CCNCC1 [Example 2-30]	≤ 100 nM	≤ 100 nM	–	–
CC(C)c1ccccc1OCc1ccccc1N1CCNCC1 [Example 2-5]	≤ 10000 nM	≤ 100 nM	–	–
Cc1cccc(OCc2ccccc2N2CCNCC2)c1 [Example 2-14]	≤ 10000 nM	≤ 100 nM	–	–
Ic1ccccc1OCc1ccccc1N1CCNCC1 [Example 2-3]	≤ 100 nM	≤ 100 nM	–	–
Ic1cccc(OCc2ccccc2N2CCNCC2)c1 [Example 1, 1-[2-(3-Iodophenoxymethyl)phenyl]piperazine]	≤ 100 nM	≤ 100 nM	–	–
Cc1ccc(OCc2ccccc2N2CCNCC2)cc1 [Example 2-17]	≤ 10000 nM	≤ 10000 nM	–	–
Fc1ccc(Cl)c(OCc2ccccc2N2CCNCC2)c1 [Example 2-27]	≤ 10000 nM	≤ 100 nM	–	–
CC(C)(C)c1cccc(OCc2ccccc2N2CCNCC2)c1 [Example 2-15]	≤ 10000 nM	≤ 10000 nM	–	–
Fc1ccc(F)c(OCc2ccccc2N2CCNCC2)c1 [Example 2-23]	≤ 10000 nM	≤ 100 nM	–	–
Clc1cc(Cl)c(OCc2ccccc2N2CCNCC2)cc1Cl [Example 2-39]	≤ 100 nM	≤ 100 nM	–	–
Clc1cccc(OCc2ccccc2N2CCNCC2)c1Cl [Example 2-19]	≤ 10000 nM	≤ 100 nM	–	–
Clc1ccccc1OCc1ccccc1N1CCNCC1 [Example 2-2]	≤ 10000 nM	≤ 100 nM	–	–
CC(C)c1cccc(C(C)C)c1OCc1ccccc1N1CCNCC1 [Example 2-38]	≤ 10000 nM	≤ 10000 nM	–	–
COc1cccc(OCc2ccccc2N2CCNCC2)c1 [Example 2-16]	≤ 10000 nM	≤ 100 nM	–	–
Clc1cccc(OCc2ccccc2N2CCNCC2)c1 [Example 2-12]	≤ 100 nM	≤ 100 nM	≤ 100 nM	≤ 100 nM
Fc1c(Cl)cccc1OCc1ccccc1N1CCNCC1 [Example 2-18]	≤ 10000 nM	≤ 100 nM	–	–
Cc1c(Cl)cccc1OCc1ccccc1N1CCNCC1 [Example 2-21]	≤ 100 nM	≤ 100 nM	–	–
Clc1ccc(Cl)c(OCc2ccccc2N2CCNCC2)c1 [Example 2-26]	≤ 10000 nM	≤ 100 nM	–	–
Fc1cc(F)cc(OCc2ccccc2N2CCNCC2)c1 [Example 2-36]	≤ 10000 nM	≤ 100 nM	–	–
Fc1ccc(OCc2ccccc2N2CCNCC2)cc1F [Example 2-33]	≤ 100 nM	≤ 100 nM	–	–
